Results on one substance are retold here after patent publication US10040838B2, “CRHR2 peptide agonists and uses thereof” (JANSSEN PHARMACEUTICA NV, priority 2008, dated 2018).

In this assay the test system is Langendorff perfused rabbit heart. Briefly: Retrograde-perfused Langendorff rabbit heart assay. Conditions: bolus into the perfusion block. The method, then: The effect of h-SCP (SEQ ID NO:1) on heart rate (HR), left ventricular (LV) contraction, and vascular tone was assessed in a retrograde-perfused Langendorff rabbit heart assay.

Read-outs that look alike come from different tables or passages of the source. No end group written: not given here.

For the substance “TKFTLSLDVPTNIMNLLFNIAKAKNLRAQAAANAHLMAQI-NH2 [SEQ ID NO: 1, TKFTLSLDVPTNIMNLLFNIAKAKNLRAQAAANAHLMAQI-NH2, reference compound]”, the EC50 reads like this: (read-out: concentration for 50% response, decrease in coronary perfusion pressure (CPP)) 46 nM; (read-out: concentration for 50% response, increase in heart rate) 52 nM; (read-out: concentration for 50% response, increase in left ventricular developed pressure (dP/dtmax)) 9.9 nM.
